Columns and labels:
JNK3 (wild-type) = JNK3 (wild-type) (Homo sapiens, UniProt P53779); assay: Coupled spectrophotometric kinase assay, JNK3 (wild-type)
Experimental: (§1) Due to the different Km values for the wild-type and mutant JNK3 enzymes we assayed each one with different ATP concentrations:
(§2) Enzyme concentrations in the assay were 5-10 nM. As for ERK2, the kinase phosphate acceptor substrate was the EGF receptor peptide (SEQ ID NO:23) used at 200 μM. Data analysis to determine Ki values was also as described for ERK2.

ERK2 (wild-type) = ERK2 (wild-type) (Homo sapiens, UniProt P28482); assay: Coupled spectrophotometric kinase assay, ERK2 (wild-type); format: biochemical
JNK3 (M146A) = JNK3 (M146A) (Homo sapiens, UniProt P53779, M146A); assay: Coupled spectrophotometric kinase assay, JNK3 (M146A)
Experimental: as §1, §2

JNK3 (M146A/D150G) = JNK3 (M146A/D150G) (Homo sapiens, UniProt P53779, D150G/M146A); assay: Coupled spectrophotometric kinase assay, JNK3 (M146A/D150G)
Experimental: as §1, §2

ERK2 (Q105A) = ERK2 (Q105A) (Homo sapiens, UniProt P28482, Q105A); assay: Coupled spectrophotometric kinase assay, ERK2 (Q105A); format: biochemical
ERK2 (Q105T) = ERK2 (Q105T) (Homo sapiens, UniProt P28482, Q105T); assay: Coupled spectrophotometric kinase assay, ERK2 (Q105T); format: biochemical
p38 = p38 (Homo sapiens, UniProt Q16539); assay: Coupled spectrophotometric kinase assay, p38; format: biochemical; details: read-out: KM for ATP
[1] = 100 μM ATP, 200 μM EGF receptor peptide, read-out: Inhibition constants, Ki

Sequence of JNK3 (M146A/D150G) (P53779 40-402 M146A/D150G): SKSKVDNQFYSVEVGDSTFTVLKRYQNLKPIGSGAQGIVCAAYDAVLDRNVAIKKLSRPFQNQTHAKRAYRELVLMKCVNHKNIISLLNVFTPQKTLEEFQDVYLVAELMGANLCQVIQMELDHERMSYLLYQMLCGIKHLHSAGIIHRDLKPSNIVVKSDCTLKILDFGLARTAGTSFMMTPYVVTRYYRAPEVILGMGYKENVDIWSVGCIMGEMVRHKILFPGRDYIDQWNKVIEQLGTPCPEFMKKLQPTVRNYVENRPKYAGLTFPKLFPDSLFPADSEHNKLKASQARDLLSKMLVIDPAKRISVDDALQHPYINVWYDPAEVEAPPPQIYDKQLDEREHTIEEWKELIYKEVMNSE
Sequence of JNK3 (wild-type) (P53779 40-402): as the sequence (P53779 40-402 M146A/D150G) above, with A107M, G111D counted along it
Sequence of JNK3 (M146A) (P53779 40-402 M146A): as the sequence (P53779 40-402 M146A/D150G) above, with G111D counted along it
Sequence of p38 (Q16539 whole entry): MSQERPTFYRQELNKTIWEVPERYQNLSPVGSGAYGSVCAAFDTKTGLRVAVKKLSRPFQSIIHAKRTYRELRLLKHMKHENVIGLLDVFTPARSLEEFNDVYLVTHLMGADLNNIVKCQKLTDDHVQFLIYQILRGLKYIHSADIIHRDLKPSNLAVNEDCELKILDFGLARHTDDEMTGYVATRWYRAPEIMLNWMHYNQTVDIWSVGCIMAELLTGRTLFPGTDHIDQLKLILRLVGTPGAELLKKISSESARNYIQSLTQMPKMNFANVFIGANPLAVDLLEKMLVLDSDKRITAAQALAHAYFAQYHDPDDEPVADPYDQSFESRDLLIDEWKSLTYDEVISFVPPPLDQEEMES

| SMILES | Km (JNK3 (wild-type); read-out: KM for ATP, JNK3 (wild-type)) | Km (ERK2 (wild-type); read-out: KM for ATP) | Km (JNK3 (M146A); read-out: KM for ATP, JNK3 (M146A)) | Km (JNK3 (M146A/D150G); read-out: KM for ATP, JNK3 (M146A/D150G)) | Km (ERK2 (Q105A); read-out: KM for ATP) | Km (ERK2 (Q105T); read-out: KM for ATP) | Km (p38) | sensitivity of wild-type JNK3 (in words) (JNK3 (wild-type); wild-type JNK3) | Ki (ERK2 (wild-type); [1]) | increase in sensitivity versus wild-type JNK3 (JNK3 (M146A); JNK3 M146A mutant) | sensitivity of the JNK3 double mutant (in words) (JNK3 (M146A/D150G); JNK3 (M146A/D150G) compared with wild-type and single mutant) | Ki (ERK2 (Q105A); [1]) | Ki (ERK2 (Q105T); [1]) |
| --- | --- | --- | --- | --- | --- | --- | --- | --- | --- | --- | --- | --- | --- |
| Nc1ncnc2c1ncn2[C@@H]1O[C@H](COP(=O)(O)OP(=O)(O)OP(=O)(O)O)[C@@H](O)[C@H]1O [ATP] | 15 µM | 76 ± 14 µM | 75 µM | 311 µM | 51 ± 6 µM | 33 ± 4 µM | 260 ± 30 µM | – | – | – | – | – | – |
| Oc1ccc(-c2nc(-c3ccc(F)cc3)c(-c3ccncc3)[nH]2)cc1 [SB202190, reference compound] | – | – | – | – | – | – | – | moderately sensitive | > 20000 nM | ~4,000 fold | considerably more sensitive than wild-type, but significantly less than observed for the single mutant | 0.81 ± 0.19 nM | 6.8 ± 0.6 nM |

From patent US6849716B1, “Methods for designing inhibitors of serine/threonine kinases and tyrosine kinases” (Vertex Pharmaceuticals Incorporated, priority 1998, dated 2005)
